Reference: ChEMBL document CHEMBL4184186, “Targeting protein-protein interaction between MLL1 and reciprocal proteins for leukemia therapy” (Bioorg Med Chem, 2018)

Experiments:
[1] = biological target: T1, Menin (Homo sapiens, UniProt O00255); experiment: Displacement of FITC-MBM1 from full length human menin measured after 1 hr by fluorescence polarization assay
T1 sequence (O00255 whole entry): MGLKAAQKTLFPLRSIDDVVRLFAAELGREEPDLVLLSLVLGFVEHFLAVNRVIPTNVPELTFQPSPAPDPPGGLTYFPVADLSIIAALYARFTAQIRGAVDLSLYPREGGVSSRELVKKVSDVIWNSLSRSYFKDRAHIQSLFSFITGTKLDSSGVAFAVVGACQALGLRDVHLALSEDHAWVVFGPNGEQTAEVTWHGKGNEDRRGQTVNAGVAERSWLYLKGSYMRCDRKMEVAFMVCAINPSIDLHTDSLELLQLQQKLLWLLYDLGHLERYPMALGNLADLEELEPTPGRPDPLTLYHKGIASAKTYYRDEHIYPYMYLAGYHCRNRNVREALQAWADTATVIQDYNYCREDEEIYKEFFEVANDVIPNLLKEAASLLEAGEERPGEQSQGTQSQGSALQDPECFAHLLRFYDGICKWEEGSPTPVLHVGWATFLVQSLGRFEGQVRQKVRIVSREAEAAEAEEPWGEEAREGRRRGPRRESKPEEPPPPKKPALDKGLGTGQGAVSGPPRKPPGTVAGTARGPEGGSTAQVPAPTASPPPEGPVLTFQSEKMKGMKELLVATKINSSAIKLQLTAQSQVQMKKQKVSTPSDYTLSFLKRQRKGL

[2] = biological target: T1, Menin; experiment: Binding affinity to menin (unknown origin) by isothermal titration calorimetry
[3] = biological target: Histone-lysine N-methyltransferase 2A (Homo sapiens, UniProt Q03164); experiment: Inhibition of MLL1 binding to N-terminal His-tagged […] 23 deletion mutant (24 to 334 residues) (unknown origin) expressed in Escherichia coli Rosetta 2 (DE3) pLysS cells by fluorescence polarization assay
Chain of Histone-lysine N-methyltransferase 2A (Q03164 1-2718 limits assumed, stated change not applied): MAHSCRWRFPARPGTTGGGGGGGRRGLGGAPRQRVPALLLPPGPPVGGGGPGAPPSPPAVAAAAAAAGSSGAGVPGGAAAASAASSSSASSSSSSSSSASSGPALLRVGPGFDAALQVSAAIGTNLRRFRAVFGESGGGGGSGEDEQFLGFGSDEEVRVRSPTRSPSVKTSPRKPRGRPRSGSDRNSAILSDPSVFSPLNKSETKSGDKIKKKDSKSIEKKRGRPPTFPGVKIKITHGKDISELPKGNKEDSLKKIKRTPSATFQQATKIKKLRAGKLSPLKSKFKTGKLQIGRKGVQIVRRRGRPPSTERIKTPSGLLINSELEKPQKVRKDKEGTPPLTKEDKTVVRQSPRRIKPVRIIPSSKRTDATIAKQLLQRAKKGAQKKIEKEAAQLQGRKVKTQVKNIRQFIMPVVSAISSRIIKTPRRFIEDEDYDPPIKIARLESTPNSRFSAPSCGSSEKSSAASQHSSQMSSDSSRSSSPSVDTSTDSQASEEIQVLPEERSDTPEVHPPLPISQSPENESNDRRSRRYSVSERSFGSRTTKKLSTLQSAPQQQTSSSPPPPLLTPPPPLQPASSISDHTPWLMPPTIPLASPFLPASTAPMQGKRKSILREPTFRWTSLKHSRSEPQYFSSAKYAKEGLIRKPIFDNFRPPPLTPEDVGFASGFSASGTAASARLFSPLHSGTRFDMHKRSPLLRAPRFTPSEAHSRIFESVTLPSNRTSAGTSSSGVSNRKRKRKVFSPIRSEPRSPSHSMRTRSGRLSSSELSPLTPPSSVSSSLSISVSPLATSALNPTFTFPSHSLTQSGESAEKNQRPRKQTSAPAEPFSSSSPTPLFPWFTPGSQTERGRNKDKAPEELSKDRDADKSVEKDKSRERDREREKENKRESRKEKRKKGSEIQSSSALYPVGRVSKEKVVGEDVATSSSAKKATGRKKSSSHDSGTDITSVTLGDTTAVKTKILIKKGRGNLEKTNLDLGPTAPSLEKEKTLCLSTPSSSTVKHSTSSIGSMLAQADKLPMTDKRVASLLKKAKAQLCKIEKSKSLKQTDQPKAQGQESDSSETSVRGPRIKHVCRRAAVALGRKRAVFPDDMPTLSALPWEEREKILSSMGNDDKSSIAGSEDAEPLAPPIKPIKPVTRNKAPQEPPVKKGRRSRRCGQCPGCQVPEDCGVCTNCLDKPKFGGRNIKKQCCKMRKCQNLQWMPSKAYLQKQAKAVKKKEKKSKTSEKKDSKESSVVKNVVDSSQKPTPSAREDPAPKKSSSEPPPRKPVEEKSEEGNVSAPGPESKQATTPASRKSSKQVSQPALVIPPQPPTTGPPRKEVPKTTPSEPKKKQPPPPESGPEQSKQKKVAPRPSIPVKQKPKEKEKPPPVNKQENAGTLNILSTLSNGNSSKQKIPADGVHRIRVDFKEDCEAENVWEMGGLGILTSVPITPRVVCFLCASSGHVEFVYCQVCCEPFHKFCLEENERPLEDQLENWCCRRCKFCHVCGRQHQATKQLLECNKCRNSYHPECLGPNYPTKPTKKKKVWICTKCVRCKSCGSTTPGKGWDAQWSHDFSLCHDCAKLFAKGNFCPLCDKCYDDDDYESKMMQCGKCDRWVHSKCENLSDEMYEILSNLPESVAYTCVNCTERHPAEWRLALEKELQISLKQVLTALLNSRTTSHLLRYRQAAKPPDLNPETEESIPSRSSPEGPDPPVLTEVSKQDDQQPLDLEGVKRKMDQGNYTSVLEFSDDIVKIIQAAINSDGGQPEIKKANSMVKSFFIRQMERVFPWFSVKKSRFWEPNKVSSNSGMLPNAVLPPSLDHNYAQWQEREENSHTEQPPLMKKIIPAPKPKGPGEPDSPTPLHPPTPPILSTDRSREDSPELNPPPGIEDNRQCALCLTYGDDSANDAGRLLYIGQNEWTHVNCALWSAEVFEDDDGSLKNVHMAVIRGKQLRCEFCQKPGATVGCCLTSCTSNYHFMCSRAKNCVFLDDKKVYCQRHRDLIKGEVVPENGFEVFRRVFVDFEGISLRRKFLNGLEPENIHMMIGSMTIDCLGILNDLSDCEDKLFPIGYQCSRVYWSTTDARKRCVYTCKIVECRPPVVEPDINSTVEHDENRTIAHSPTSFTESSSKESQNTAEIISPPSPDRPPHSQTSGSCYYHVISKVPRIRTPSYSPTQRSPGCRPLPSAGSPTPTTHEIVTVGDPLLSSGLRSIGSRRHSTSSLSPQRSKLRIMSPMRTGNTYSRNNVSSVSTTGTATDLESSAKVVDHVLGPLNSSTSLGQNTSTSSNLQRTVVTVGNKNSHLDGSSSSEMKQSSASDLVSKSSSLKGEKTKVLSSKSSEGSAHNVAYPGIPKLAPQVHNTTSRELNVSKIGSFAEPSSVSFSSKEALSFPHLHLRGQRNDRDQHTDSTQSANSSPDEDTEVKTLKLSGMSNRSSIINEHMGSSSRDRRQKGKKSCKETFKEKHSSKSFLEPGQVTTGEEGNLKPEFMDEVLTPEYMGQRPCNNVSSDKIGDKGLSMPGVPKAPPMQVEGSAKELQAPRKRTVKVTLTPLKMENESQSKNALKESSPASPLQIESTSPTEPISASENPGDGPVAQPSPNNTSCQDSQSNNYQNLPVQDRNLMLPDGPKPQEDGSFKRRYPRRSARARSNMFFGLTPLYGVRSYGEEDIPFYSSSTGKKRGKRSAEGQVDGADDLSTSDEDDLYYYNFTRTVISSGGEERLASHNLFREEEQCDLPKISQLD
Chain of Histone-lysine N-methyltransferase 2A (Q03164 2719-3969 limits assumed, stated change not applied): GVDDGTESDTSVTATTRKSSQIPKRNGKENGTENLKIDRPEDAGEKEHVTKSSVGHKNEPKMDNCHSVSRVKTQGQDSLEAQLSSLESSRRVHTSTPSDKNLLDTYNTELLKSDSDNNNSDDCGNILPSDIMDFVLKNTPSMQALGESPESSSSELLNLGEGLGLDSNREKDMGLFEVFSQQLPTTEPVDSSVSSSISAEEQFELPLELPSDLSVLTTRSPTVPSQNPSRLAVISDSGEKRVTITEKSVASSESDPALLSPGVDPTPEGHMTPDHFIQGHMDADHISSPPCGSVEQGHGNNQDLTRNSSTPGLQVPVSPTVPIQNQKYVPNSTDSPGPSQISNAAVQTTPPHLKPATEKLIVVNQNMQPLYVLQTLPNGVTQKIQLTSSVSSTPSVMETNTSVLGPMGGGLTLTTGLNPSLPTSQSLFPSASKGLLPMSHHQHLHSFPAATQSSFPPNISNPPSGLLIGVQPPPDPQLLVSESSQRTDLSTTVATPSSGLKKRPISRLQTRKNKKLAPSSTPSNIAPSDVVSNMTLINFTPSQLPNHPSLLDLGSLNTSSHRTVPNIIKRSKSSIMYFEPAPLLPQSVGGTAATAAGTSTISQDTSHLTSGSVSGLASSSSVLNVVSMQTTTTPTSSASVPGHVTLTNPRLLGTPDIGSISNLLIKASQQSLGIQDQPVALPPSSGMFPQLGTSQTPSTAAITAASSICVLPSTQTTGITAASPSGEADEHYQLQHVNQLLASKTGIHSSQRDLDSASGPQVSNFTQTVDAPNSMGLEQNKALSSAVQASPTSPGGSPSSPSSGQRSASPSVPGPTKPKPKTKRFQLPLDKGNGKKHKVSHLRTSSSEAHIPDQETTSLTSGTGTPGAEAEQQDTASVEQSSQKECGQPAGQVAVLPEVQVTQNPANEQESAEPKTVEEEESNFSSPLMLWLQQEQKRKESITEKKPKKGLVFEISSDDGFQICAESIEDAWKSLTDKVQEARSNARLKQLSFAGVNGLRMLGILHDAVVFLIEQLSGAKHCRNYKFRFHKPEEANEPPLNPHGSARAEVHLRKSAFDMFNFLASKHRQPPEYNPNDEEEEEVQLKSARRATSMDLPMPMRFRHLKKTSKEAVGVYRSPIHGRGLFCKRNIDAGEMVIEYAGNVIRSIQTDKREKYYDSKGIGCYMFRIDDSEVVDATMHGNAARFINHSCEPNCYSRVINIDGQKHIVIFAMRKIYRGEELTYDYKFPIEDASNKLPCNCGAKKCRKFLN

[4] = biological target: T1, Menin
Description: Displacement of FITC-MBM1 from menin (unknown origin) measured after 1 hr by fluorescence polarization assay

[5] = biological target: T1, Menin; experiment: Displacement of FITC-MBM1 from full length human menin measured after 2 hrs by fluorescence polarization assay

Question: How did the IC50 [1] turn out when Cc1c(CN2CCC(Nc3ncnc4sc(CC(F)(F)F)cc34)CC2)ccc2c1cc(C#N)n2Cc1cn[nH]c1 was run?
Answer: 0.0147 µM

Question: And the Kd [2]?
Answer: 0.0093 µM

Question: What does the source list for CCC(CC)(NC(=O)C(C)C)C(=O)N[C@@H](CCCNC(=N)N)C(=O)NC1(C(=O)NC(c2ccc(Cl)cc2)c2ccc(Cl)cc2)CCCC1?
Answer: IC50 [3]: 0.0045 µM; Ki [3]: < 0.001 µM

Question: How did the IC50 [4] turn out when O=c1cccc2n1[C@@H]1C[C@H](C2)CN(CC(O)CCCc2ccccc2)C1 (stereo partly drawn) was run?
Answer: 0.001 µM

Question: What does the source list for NCC(CCN1CC=C(c2ccc(Cl)cc2)CC1)(c1ccccc1)C1CCCC1 (stereo not drawn)?
Answer: IC50 [5]: 0.83 µM; Ki [5]: 0.08 µM

Question: CN(C)C(=O)C(CCN1CCC(O)(c2ccc(Cl)cc2)CC1)(c1ccccc1)c1ccccc1 [LOPERAMIDE] was tested. Which IC50 [5] did it give?
Answer: 69 µM
